Patent US8323659B2, “Method for diagnosing and/or treating tumor” (Keio University, priority 2008, dated 2012)

What was measured:
[1] = system: CD8+ cells from PBMC of healthy individuals positive for HLA-A24; test: Gamma interferon production by peptide-induced human CD8+ cells; assay type: cell-based; details: IL-2 and APC; for gamma interferon production capability: FIG. 5D
Experimental: (§1) First, blood was collected from two healthy individuals positive for HLA-A24, to which 1/10 volume of 4% sodium citrate was added, and was overlaid on Ficoll-Paque (Amersham Inc.) and centrifuged (1500 rpm, 20 min, room temperature). The fraction of monocytes (PBMC) separated in the interface was cultured for 6 days under the stimulation with 10 μg/mL of each peptide, from which CD8+ cells were isolated by the MACS method using antibody-coupled magnetic beads (Miltenyi Inc). In order to estimate cytotoxic activity of the isolated CD8+ cells, they were cocultured with human colon cancer cell line COLO320 (HLA-A24^+ SAGE^+ HERV-H ^+ Env^+) as the target cell at a mixing ratio of [CD8+ cell:COLO320 tumor cell=50:1] for 6 hours. The killed tumor cells were detected using Immunocyto Cytotoxity Detection Kit (MBL inc.), and tumor-specific toxicity rates were calculated according to the protocol attached to the kit. Results are plotted in the graph of FIG. 5A.
In order to evaluate the gamma interferon production capability, 1×10^6 of CD8+ cells were stimulated by 1 or 10 μg/mL of each peptide for 24 hours in the presence of IL-2 (100 U/mL, Peprotech Inc.) and APC (5×10^6 cells) which was obtained by collecting the PBMCs freshly from a healthy individual and then inactivating them with mitomycin C. Amounts of gamma interferon contained in the culture supernatants were measured by Cytometric Bead Array kit for human (BD Biosciences Inc.). Results are plotted in the graph of FIG. 5B.
The gamma interferon production capability was evaluated by stimulating CD8+ cells with 0.1, 1 or 10 μg/mL of each peptide in the presence of IL-2 and APC. The results are plotted in the graph of FIG. 5D.

[2] = system: PKH67-labeled CD8+ cells in SCID mice; test: In vivo proliferation of peptide-induced CD8+ cells in immunodeficiency mice; set-up: species or system mouse; details: FIG. 8; for content of CD8+ cells in vivo: SCID mice, peptide 100 μg per animal via tail vein, 5 days, spleen and peripheral blood, versus no peptide administered
Experimental: In the same method as described in Example 4, CD8+ cells were obtained by culturing PBMCs with the stimulation of HERV-H#1 (final concentration 10 μg/mL). The CD8+ cells for a control group were obtained by culturing under the stimulation by NY-ESO-1 peptide (SEQ ID NO: 23) in place of HERV-H#1 at the same concentration. The CD8+ cells thus obtained were fluorescence-labeled by mixing with a fluorescent dye PKH67 (Sigma Corp.) and incubating for 10 min.
The PKH67-labeled CD8+ cells (2×10^6 cells), PBMCs (2×10^7 cells) collected from the same healthy individual, and a peptide (HERV-H Env or NY-ESO-1 (control groups) at 100 μg per animal) were injected via the tail vein of immunodeficiency mice (the SCID mice, CLEA Japan Inc.). Spleen cells and peripheral blood cells were collected from the mice on 5 days after the administration, and the content of PKH67-labeled CD8+ cells was measured by flow cytometry (BD Inc.). Mice treated similarly except that no peptide was administered were used for a control experiment.

[3] = system: Clone F3 (Panc-1 cells in which the snail gene was forcibly expressed); test: Cell growth of Clone F3 after siRNA transfection; assay type: cell-based, human; details: F3 cells cultured 2 to 3 days after siRNA transfection; in contrast to untreated cells and control siRNA; FIG. 3A
Experimental: First, snail cDNA (CDS 71-865, 795 bp) was amplified by PCR using the Panc-1 cells that had been stimulated with TGF-beta known as an EMT-inducing agent, and was inserted into the EcoR I-Xho I restriction sites of pcDNA3.1 (+) plasmid vector (Invitrogen Inc.) having a G418 resistance gene. The vector was introduced into the tumor cell lines by electroporation. The cells were cultured for 2 weeks and then drug-resistant cells were selected with G418 (2 mg/mL) and cloned.
In this example, the expression of HERV-H env gene was suppressed in Clone F3 and cell invasion capability and growth rate were measured.
(§2) First, 5×10^4 of F3 cells, as well as F3 cells (#1 to #4, Invitrogen Inc.) that had been cultured for 2 to 3 days after transfected with each of the 4 kinds of HERV-H env gene specific-siRNAs (shown below) by PEI complex method (Polyplus Inc.), were counted. The numbers of cells as plotted in the graph of FIG. 3A were taken as a standard of the growth rates.
(§3) For control experiments, F3 cells (Control) transfected with a control oligonucleotide from Invitrogen, F3 cells (siRNA-snail) transfected with snail gene specific-siRNA (SiRNA-snail #1) (shown below) and a Panc-1 cell line (Parent) were used.

[4] = system: Clone F3 (Panc-1 cells in which the snail gene was forcibly expressed); test: Cell invasion capability of Clone F3 (matrigel Invasion Chamber); assay type: cell-based, human; details: F3 cells transfected with siRNA; matrigel-coated membrane, 4 hours; FIG. 3B
Text: as §2
Then, the recovered cells were placed on the upper surface of the Invasion Chamber (pore size 8 μm, BD Bioscience Inc.) whose membrane was coated with matrigel, and cultured for 4 hours (37° C., 5% CO2). After cells remaining on the upper surface of the membrane were removed completely, the cells invaded into the lower surface of the membrane were fixed and stained with Crystal Violet solution and counted under a microscope to evaluate the cell invasion capability.
as §3

[5] = system: CD8+ cells of genetically modified mice expressing HLA-A24 (A24-Tg); test: Gamma interferon production by CD8+ cells of peptide-immunized HLA-A24 transgenic mice; assay type: cell-based, mouse; details: for gamma interferon producing activity at lower concentrations: peptide below 2 μg/mL, normalized to 10 μg/mL as 100%
Experimental: First, dendritic cell precursors were isolated from bone marrow cells of A24-Tg mice using LineagePanel Streptavidin Plus Magnetic Particles-DM (BD Biosciences Inc.) and cultured for 6 days in the presence of GM-CSF (10 ng/mL, Peprotech Inc.) to induce their differentiation. The dendritic cells thus obtained were cultured for 6 hours in the presence of each of the peptides having the sequences shown below (10 μg/mL, synthesized by Invitrogen Inc.), and then injected subcutaneously to genetically modified mice expressing HLA-A24 at 5×10^6 cells per mouse for immunization. In addition, SAGE which has been identified as a testicular tumor antigen and for which a HLA-A24-restricted peptide has been established, was used for a positive control experiment (Cancer Research 60:3848-3855, 2000), and dendritic cells not stimulated by a peptide were used as the negative control.
Spleen cells were collected from the mice one week after the immunization with each of the peptides, and were cultured under the stimulation by 10 μg/mL of the same peptide as used for immunization for 6 days, from which CD8+ cells were isolated by the MACS method using antibody-coupled magnetic beads from Miltenyi Inc . In order to produce cytokine at a higher level, the CD8+ cells (1×10^6) were further stimulated for 24 hours by 0.08 to 10 μg/mL of the same peptide in the presence of APC (1×10^7 cells) that was obtained by collecting the spleen cells freshly from a HLA-A24 expressing-genetically modified mouse and then inactivating the cells with mitomycin C. Amounts of gamma interferon contained in the culture supernatants were measured by Cytometric Bead Array kit for mouse (BD Biosciences Inc.).

[6] = system: human colon cancer cell line COLO320; test: Toxicity of peptide-induced CD8+ cells (HLA-A24 positive PBMC) against COLO320; assay type: cell-based
Experimental: as §1
The toxicity against tumor cells was evaluated by setting the ratio of CD8+ cells:COLO320 tumor cells to 6.25:1, 12.5:1, 25:1 or 50:1. The results are plotted in the graph of FIG. 5C.

[7] = system: human pancreatic tumor cell line Panc-1; test: Toxicity of peptide-induced CD8+ cells (HLA-A02 positive PBMC) against Panc-1; assay type: cell-based; details: two HLA-A02 positive healthy individuals; FIG. 5E
[8] = lower peptide concentration (0.1 μg/mL)
[9] = peptide concentrations equal to or higher than 1 μg/mL

For “LLMWITQCF (listed as Homo sapiens) [NY-ESO-1, HLA-A24-restricted tumor antigen peptide clinically used in peptide vaccine treatments, reference compound]”, the “gamma interferon production capability” value [1, 8] was “significantly reduced”, the “gamma interferon production capability” value [1, 9] was “best production” and the “content of CD8+ cells in vivo” value [2] was “higher content of CD8+ cells”.
For “siRNA-snail: snail gene specific-siRNA; sense GCGAGCUGCAGGACUCUAAdTdT (SEQ ID NO: 18), antisense SEQ ID NO: 19 (sense GCGAGCUGCAGGACUCUAATT; antisense UUAGAGUCCUGCAGCUCGCTT; dTdT overhangs, further chemistry not given here)”, the “cell growth (numbers of cells)” value [3] was “strongly suppressed” and the cell invasion capability [4] was “significantly reduced”.
“FYSLLLYSL (listed as Homo sapiens) [HERV-H#2]” was tested, and the “amounts of gamma interferon produced (comparison among the HERV-H Env peptides)” value ([5]; peptide 0.08 to 10 μg/mL, FIG. 4B) was “highest activity” and the “gamma interferon producing activity at lower concentrations” value ([5]; FIG. 4B) was “significantly reduced”.
“SYLHHTINL (listed as Homo sapiens) [HERV-H#1]” was tested, and the TCR-binding affinity ([5]; inferred from the concentration dependence of gamma interferon production, P<0.001, t-test) was “significantly higher than the other peptides”, the “gamma interferon producing activity at lower concentrations” value ([5]; FIG. 4B) was “maintained” and the “toxicity against tumor cells (COLO320)” value ([6]; E:T ratio equal to or more than 25:1, FIG. 5C) was “highest toxicity”. For the same substance, the “toxicity against tumor cells (killed COLO320)” value ([6]; two HLA-A24 positive healthy individuals, CD8+ cell:COLO320 = 50:1, 6 hours, FIG. 5A) was “highest”, the “gamma interferon production capability” value [1, 8] was “still sufficient to induce gamma interferon production” and the gamma interferon production ([1]; peptide 10 μg/mL, 24 hours, FIG. 5B) was “significantly higher production than the other peptides”. The “gamma interferon production capability” value [1, 9] was “second best after NY-ESO-1”, the “toxicity against tumor cells (killed Panc-1)” value [7] was “highest toxicity” and the “content of CD8+ cells in vivo” value [2] was “higher content of CD8+ cells”. The “self-proliferation of the induced CD8+ cells” value ([2]; no peptide administered to the mice, versus CD8+ cells induced by NY-ESO-1 peptide) was “less active” and the “proliferation activity of the induced CD8+ cells” value ([2]; peptides administered to the mice, versus CD8+ cells induced by NY-ESO-1 peptide) was “higher than that of the CD8+ cells induced by NY-ESO-1 peptide”.
For “NYAEPPWPL (listed as Homo sapiens) [HERV-H#3]”, the “gamma interferon producing activity at lower concentrations” value ([5]; FIG. 4B) was “significantly reduced”.
